According to US20140011676A1, “1, 8 -DIAZASPIRO [4.5] DECANE- 2, 4 -DIONE DERIVATIVES USEFUL AS PESTICIDES” (SYNGENTA PARTICIPATIONS AG, priority 2010, published 2014):
Like-named read-outs stand apart in the source and are kept apart here. Values belong to the molecule of their own block, whether it stands above or below them.

What was measured:
[1] = test system: Myzus persicae (green peach aphid); test: Activity against Myzus persicae on cabbage plants, feeding/residual contact activity, spray chamber; type: in vivo; conditions: 144 h, 6 days after treatment
cabbage plants = conditions: in vivo, 6 days, 200 ppm
[2] = test system: Myzus persicae (green peach aphid); conditions: foliar, 144 h, read-out: activity (mortality) against Myzus persicae
[3] = test system: Myzus persicae (green peach aphid); test: Activity against Myzus persicae, mixed population, systemic/feeding activity, curative (pea seedlings); conditions: 144 h, read-out: activity (mortality) against Myzus persicae, systemic
[4] = test system: Tetranychus urticae (two-spotted spider mite); test: whole plant or invertebrate; conditions: foliar, 192 h, read-out: activity (egg, larval and adult mortality) against Tetranychus urticae
[5] = test system: Thrips tabaci (onion thrips); conditions: foliar, 144 h, read-out: activity (mortality) against Thrips tabaci

Compound: CON1CCC2(CC1)C(=O)C(Cl)(c1cc(C)ccc1C)C(=O)N2C (stereo not shown) [Compound P1.5, 3-Chloro-3-(2,5-dimethyl-phenyl)-8-methoxy-1-methyl-1,8-diaza-spiro[4.5]decane-2,4-dione]
mortality at 200 ppm [1]: ≥ 80% | damage to cabbage plants (phytotoxicity) (cabbage plants): ≤ 10%

Compound: CON1CCC2(CC1)C(=O)C(Cl)(c1c(C)cc(C)cc1C)C(=O)N2CC1CCCO1 (stereo not shown) [Compound P1.8]
mortality at 200 ppm [1]: ≥ 80% | damage to cabbage plants (phytotoxicity) (cabbage plants): ≤ 10%

Compound: CON1CCC2(CC1)C(=O)C(Cl)(c1cc(C)c(C)cc1C)C(=O)N2CC1CC1 (stereo not shown) [Compound P1.6]
mortality at 200 ppm [1]: ≥ 80% | damage to cabbage plants (phytotoxicity) (cabbage plants): ≤ 10%

Compound: COCCN1C(=O)C(Cl)(c2c(C)cc(Cl)cc2C)C(=O)C12CCN(OC)CC2 (stereo not shown) [Compound P1.14]
mortality at 200 ppm [1]: ≥ 80% | damage to cabbage plants (phytotoxicity) (cabbage plants): ≤ 10% | mortality at 400 ppm [2]: > 80%

Compound: CON1CCC2(CC1)C(=O)C(Cl)(c1c(C)ccc(-c3ccc(Cl)cc3)c1C)C(=O)N2C (stereo not shown) [Compound P1.12]
mortality at 200 ppm [1]: ≥ 80% | damage to cabbage plants (phytotoxicity) (cabbage plants): ≤ 10% | mortality at 400 ppm [2]: > 80%

Compound: CON1CCC2(CC1)C(=O)C(Cl)(c1c(C)cc(Br)cc1C)C(=O)N2C (stereo not shown) [Compound P1.3]
mortality at 200 ppm [1]: ≥ 80% | damage to cabbage plants (phytotoxicity) (cabbage plants): ≤ 10% | mortality at 400 ppm [2]: > 80% | mortality at 400 ppm [3]: > 80%

Compound: CON1CCC2(CC1)C(=O)C(Cl)(c1cc(C)c(C)cc1Cl)C(=O)N2C (stereo not shown) [Compound P1.1, 3-Chloro-3-(2-chloro-4,5-dimethyl-phenyl)-8-methoxy-1-methyl-1,8-diaza-spiro[4.5]decane-2,4-dione]
mortality at 400 ppm [4]: > 80% | mortality at 400 ppm [2]: > 80%

Compound: CON1CCC2(CC1)C(=O)C(c1c(C)cc(C)cc1C)([N+](=O)[O-])C(=O)N2C (stereo not shown) [Compound P1.13, 8-Methoxy-1-methyl-3-nitro-3-(2,4,6-trimethyl-phenyl)-1,8-diaza-spiro[4.5]decane-2,4-dione]
mortality at 200 ppm [1]: ≥ 80% | damage to cabbage plants (phytotoxicity) (cabbage plants): ≤ 10% | mortality at 400 ppm [2]: > 80%

Compound: CCc1cc(Cl)cc(C)c1C1(Cl)C(=O)N(C)C2(CCN(OC)CC2)C1=O (stereo not shown) [Compound P1.11]
mortality at 200 ppm [1]: ≥ 80% | damage to cabbage plants (phytotoxicity) (cabbage plants): ≤ 10% | mortality at 400 ppm [2]: > 80%

Compound: CON1CCC2(CC1)C(=O)C(Cl)(c1cc(Br)c(C)cc1C)C(=O)N2C (stereo not shown) [Compound P1.2]
mortality at 200 ppm [1]: ≥ 80% | damage to cabbage plants (phytotoxicity) (cabbage plants): ≤ 10% | mortality at 400 ppm [2]: > 80% | mortality at 400 ppm [5]: > 80%

Compound: CON1CCC2(CC1)C(=O)C(Cl)(c1c(C)cccc1C)C(=O)N2C (stereo not shown) [Compound P1.7]
mortality at 200 ppm [1]: ≥ 80% | damage to cabbage plants (phytotoxicity) (cabbage plants): ≤ 10% | mortality at 400 ppm [3]: > 80%

Compound: CON1CCC2(CC1)C(=O)C(Cl)(c1c(C)cc(C)cc1C)C(=O)N2C (stereo not shown) [Compound P1.4]
mortality at 200 ppm [1]: ≥ 80% | damage to cabbage plants (phytotoxicity) (cabbage plants): ≤ 10% | mortality at 400 ppm [2]: > 80% | mortality at 400 ppm [3]: > 80% | mortality at 400 ppm [5]: > 80%

melting point: 115 to 117 °C
Compound: COc1cc(Cl)cc(C)c1C1(Cl)C(=O)N(C)C2(CCN(OC)CC2)C1=O (stereo not shown) [Compound P1.10]
